Like-named read-outs stand apart in the source and are kept apart here.
Key:
HCT 116 cell line = assay: Cell inhibition assay method A (WST-1, 120 hrs); format: cell-based; details: Homo sapiens, HCT-116, method A, read-out: Inhibitor Activity vs HCT 116 cell line (method A)
Description: (§1) Cell inhibition assays were carried out using either method A or method B
Cells were seeded in 96W tissue culture plates (1 well=30 mm^2) at a density of […] per well in 50 μL of the appropriate culture medium (see below). 24 hrs later […] of the compound prepared in the same medium was added as 4 fold dilutions to give final concentrations in the range 0.15 nM-2500 nM (n=6 for each concentration). The plates were then incubated at 37° C., 5% CO2 for 120 hrs. Cell proliferation was assessed using WST-1 (a metabolic indicator dye, Roche Cat no. 1 644 807) according to the manufacturers instructions. The results were calculated as percentage of vehicle response and IC50 values represent the concentration of compound that inhibited the vehicle response by 50%.
HCT-116 culture medium —Dulbeccos MEM (Sigma D6546) plus 10% heat inactivated fetal calf serum (Hyclone SH30071 Thermo Fischer Scientific) containing 2 mM Glutamine (Sigma cat no G-7513) and 50 U/ml Penicillin and Streptomycin Sulphate (Sigma Cat no P-0781).

U937 cell = assay: Cell inhibition assay method B (tritiated thymidine incorporation, 72 hrs); format: cell-based; details: Homo sapiens, U-937, read-out: Inhibition of U937 cell proliferation (IC50, nM) (method B)
Description: as §1
The plates were then incubated at 37° C., 5% CO2 for 72 hrs.
A tritiated thymidine incorporation assay was used as a measure of cell proliferation. In short, cells were incubated with 0.4 μCi/well for 4 hrs before harvesting onto filtermats. These were dried, meltilex scintillation sheets melted on, then sealed in bags and ^3H emission counted on a Trilux microbeta counter.

PLK1 = target: T1, PLK1 (Homo sapiens, UniProt P53350); assay: PLK1 enzyme assay (Z'-LYTE, Invitrogen); format: biochemical
T1 construct: purchased Invitrogen (Paisley, UK)
T1 sequence (P53350 whole entry): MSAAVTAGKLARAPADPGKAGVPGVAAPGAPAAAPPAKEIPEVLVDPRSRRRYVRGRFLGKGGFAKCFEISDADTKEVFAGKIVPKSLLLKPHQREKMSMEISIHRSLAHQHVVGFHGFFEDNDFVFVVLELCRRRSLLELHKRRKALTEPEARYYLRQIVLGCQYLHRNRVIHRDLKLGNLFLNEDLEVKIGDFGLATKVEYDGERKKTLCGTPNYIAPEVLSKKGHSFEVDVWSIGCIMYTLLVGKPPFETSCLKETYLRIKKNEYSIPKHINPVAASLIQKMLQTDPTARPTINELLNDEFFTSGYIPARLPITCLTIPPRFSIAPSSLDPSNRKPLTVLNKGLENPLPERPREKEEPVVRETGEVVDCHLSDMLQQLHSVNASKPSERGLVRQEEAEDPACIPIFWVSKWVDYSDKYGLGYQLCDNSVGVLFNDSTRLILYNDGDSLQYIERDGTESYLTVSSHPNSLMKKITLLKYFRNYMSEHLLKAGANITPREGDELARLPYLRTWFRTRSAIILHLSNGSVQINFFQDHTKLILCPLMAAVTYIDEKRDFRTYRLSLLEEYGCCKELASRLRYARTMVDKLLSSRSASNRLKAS
Description: The ability of compounds to inhibit PLK-1 kinase activity was measured in an assay performed by Invitrogen (Paisley, UK). The Z′-LYTE™ biochemical assay employs a fluorescence-based, coupled-enzyme format and is based on the differential sensitivity of phosphorylated and non-phosphorylated peptides to proteolytic cleavage. The peptide substrate is labelled with two fluorophores—one at each end—that make up a FRET pair. In the primary reaction, the kinase transfers the gamma-phosphate of ATP to a single serine or threonine residue in a synthetic FRET-peptide. In the secondary reaction, a site-specific protease recognizes and cleaves non-phosphorylated FRET-peptides. Phosphorylation of FRET-peptides suppresses cleavage by the Development Reagent. Cleavage disrupts FRET between the donor (i.e., coumarin) and acceptor (i.e., fluorescein) fluorophores on the FRET-peptide, whereas uncleaved, phosphorylated FRET-peptides maintain FRET. A […] method, which calculates the ratio (the Emission Ratio) of donor emission to acceptor emission after excitation of the donor fluorophore at 400 nm, is used to quantitate reaction progress.
The assay is performed at an ATP concentration at, or close to, the Km. After the 60 minute Kinase Reaction incubation at RT, 5 μL of a 1:8 dilution of Development Reagent is added. The assay plate is incubated for a further 60 minutes at RT and read on a fluorescence plate reader.
Duplicate data points are generated from a ⅓ log dilution series of a stock solution of test compound in DMSO. Nine dilutions steps are made from a top concentration of 10 μM, and a ‘no compound’ blank is included. Data is collected and analysed using XLfit software from IDBS.

[1] = ATP at or close to Km, read-out: Inhibitor Activity vs PLK1

IC50 (HCT 116 cell line) [nM] | IC50 (U937 cell) [nM] | IC50 (PLK1; [1]) [nM] | IC50 (PLK1; ester (for Compound 1: the compound itself, one cell spans ester/acid), read-out: Inhibition of PLK (IC50, nM) ester) [nM] | SMILES
< 100 | 0.09 | < 100 | 6 | CC[C@@H]1C(=O)N(C)c2cnc(Nc3ccc(C(=O)NC4CCN(CC[C@H](N)C(=O)OC5CCCC5)CC4)cc3OC)nc2N1C1CCCC1 [Example 22, Cyclopentyl (2S)-2-amino-4-{4-[(4-{[(7R)-8-cyclopentyl-7-ethyl-5-methyl-6-oxo-5,6,7,8-tetrahydropteridin-2-yl]amino}-3-methoxybenzoyl)amino]piperidin-1-yl}butanoate]
< 100 |  | < 100 |  | CC[C@@H]1C(=O)N(C)c2cnc(Nc3ccc(C(=O)NC4CCN(CC[C@@H](N)C(=O)OC5CCCC5)C4)cc3OC)nc2N1C1CCCC1 (stereo partly drawn) [Example 17, Cyclopentyl (2R)-2-amino-4-{3-[(4-{[(7R)-8-cyclopentyl-7-ethyl-5-methyl-6-oxo-5,6,7,8-tetrahydropteridin-2-yl]amino}-3-methoxybenzoyl)amino]pyrrolidin-1-yl}butanoate]
< 100 |  | < 100 |  | CC[C@@H]1C(=O)N(C)c2cnc(Nc3ccc(C(=O)NC4CCN(CC[C@@H](N)C(=O)OC5CCCC5)CC4)cc3OC)nc2N1C1CCCC1 [Example 31, Cyclopentyl (2R)-2-amino-4-{4-[(4-{((7R)-8-cyclopentyl-7-ethyl-5-methyl-6-oxo-5,6,7,8-tetra hydropteridin-2-yl]amino}-3-methoxybenzoyl)amino]piperidin-1-yl}butanoate]
< 100 |  | < 100 |  | CC[C@@H]1C(=O)N(C)c2cnc(Nc3ccc(C(=O)NCc4ccc(OCC[C@H](N)C(=O)OC(C)(C)C)cc4)cc3OC)nc2N1C1CCCC1 [Example 12]
< 100 |  | < 100 |  | CC[C@@H]1C(=O)N(C)c2cnc(Nc3ccc(C(=O)NC4CCN(CC[C@H](N)C(=O)OC5CCCC5)CC4)cc3C)nc2N1C1CCCC1 [Example 28, Cyclopentyl (2S)-2-amino-4-(4-[(4-{[(7R)-8-cyclopentyl-7-ethyl-5-methyl-6-oxo-5,6,7,8-tetra hydropteridin-2-yl]amino}-3-methylbenzoyl)amino]piperidin-1-yl}butanoate]
100 to 500 |  | < 100 |  | CC[C@@H]1C(=O)N(C)c2cnc(Nc3ccc(OCC[C@H](N)C(=O)OC4CCCC4)cc3)nc2N1C1CCCC1 [Example 3, Cyclopentyl O-(4-{[(7R)-8-cyclopentyl-7-ethyl-5-methyl-6-oxo-5,6,7,8-tetrahydropteridin-2-yl]amino}phenyl)-L-homoserinate]
< 100 |  | < 100 |  | CC[C@@H]1C(=O)N(C)c2cnc(Nc3ccc(/C=C/C[C@H](N)C(=O)OC4CCCC4)cc3)nc2N1C1CCCC1 [Example 2]
< 100 |  | < 100 |  | CC[C@@H]1C(=O)N(C)c2cnc(Nc3ccc(C(=O)NC4CCN(CC[C@H](N)C(=O)OC5CCCC5)CC4)cc3F)nc2N1C1CCCC1 [Example 30, Cyclopentyl (2S)-2-amino-4-{4-[(4-{[(7R)-8-cyclopentyl-7-ethyl-5-methyl-6-oxo-5,6,7,8-tetra hydropteridin-2-yl]amino}-3-fluorobenzoyl)amino]piperidin-1-yl}butanoate]
< 100 |  | < 100 |  | CC[C@@H]1C(=O)N(C)c2cnc(Nc3ccc(C(=O)NC4CCN(CC[C@H](N)C(=O)OC(C)(C)C)CC4)cc3F)nc2N1C1CCCC1 [Example 29, t-Butyl (2S)-2-amino-4-{4-{(4-{[(7R)-8-cyclopentyl-7-ethyl-5-methyl-6-oxo-5,6,7,8-tetrahydropteridin-2-yl]amino}-3-fluorobenzoyl)amino]piperidin-1-yl}butanoate]
< 100 |  | < 100 |  | CC[C@@H]1C(=O)N(C)c2cnc(Nc3ccc(C(=O)NC4CCN(CCC[C@H](N)C(=O)OC5CCCC5)CC4)cc3OC)nc2N1C1CCCC1 [Example 24, Cyclopentyl 5-{4-[(4-{[(7R)-8-cyclopentyl-7-ethyl-5-methyl-6-oxo-5,6,7,8-tetrahydropteridin-2-yl]amino}-3-methoxybenzoyl)amino]piperidin-1-yl}-L-norvalinate]
< 100 |  | < 100 |  | CC[C@@H]1C(=O)N(C)c2cnc(Nc3ccc(C(=O)NC4CCN(CC[C@H](N)C(=O)OC5CCCC5)C4)cc3OC)nc2N1C1CCCC1 (stereo partly drawn) [Example 16]
